# Data taken from article PMC4638191, “Multicomponent reaction-based synthesis and biological evaluation of tricyclic heterofused quinolines with multi-trypanosomatid activity” (European Journal of Medicinal Chemistry, 2015).
# Read-outs that look alike come from different tables or passages of the source.
# What was measured:
# in vitro = conditions: rat, rat skeletal muscle L6 cells
# Procedure: (§1) Cytotoxicity against mammalian cells was assessed using microtitre plates following a described procedure [58]. Briefly, rat skeletal muscle L6 cells were seeded at 1 × 10^4 mL^−1 in 200 μL of growth medium containing different compound concentrations. The plates were incubated for 6 days at 37 °C and 20 μL resazurin was then added to each well. After a further 8 h incubation, the fluorescence was determined using a Spectramax plate reader.
# [1] = system: L. infantum strain MCAN/ES/92/BCN722 promastigote forms; experiment: Activity against promastigotes of L. infantum (acid phosphatase); type: cell-based, Leishmania infantum; conditions: promastigote form, mean ± SD of duplicate experiments performed at least twice
# [2] = system: rat skeletal myoblast L6 cells; experiment: cells; conditions: L6, read-out: L6 cells IC50
# Procedure: as §1
# [3] = system: bloodstream form T. brucei (strain 221); experiment: Trypanocidal activity against cultured bloodstream form T. brucei (resazurin); conditions: for IC50: mean of triplicate ± SEM; for IC90: pH 7.4, read-out: T. brucei IC90
# Procedure: T. brucei in the logarithmic phase of growth were diluted back to 2.5 × 10^4 mL^−1 and aliquoted into 96-well plates. The compounds were then added at a range of concentrations and the plates incubated at 37 °C. Each drug concentration was tested in triplicate. Resazurin was added after 48 h and the plates incubated for a further 16 h and the plates then read in a Spectramax plate reader. Results were analysed using GraphPad Prism.
# [4] = system: T. cruzi strain MHOM/ES/2203/BCN590 (Tcl) epimastigote forms; experiment: Activity against epimastigotes of T. cruzi (cell counting); conditions: mean ± SD of duplicate experiments performed at least twice
# [5] = for Pe: PAMPA-BBB, PBS:EtOH 70:30, mean ± SD of three independent experiments; for Pe (prediction) of BBB permeation: class from PAMPA-BBB Pe
# Procedure: Thus, the brain passive permeability of the novel compounds was evaluated in vitro through the widely used PAMPA-BBB method [[50]
# [6] = biological target: Electrophorus electricus AChE (EeAChE) (Electrophorus electricus, UniProt O42275); experiment: biochemical; type: biochemical; conditions: mean ± SEM
# Sequence of Electrophorus electricus AChE (EeAChE) (O42275 24-633): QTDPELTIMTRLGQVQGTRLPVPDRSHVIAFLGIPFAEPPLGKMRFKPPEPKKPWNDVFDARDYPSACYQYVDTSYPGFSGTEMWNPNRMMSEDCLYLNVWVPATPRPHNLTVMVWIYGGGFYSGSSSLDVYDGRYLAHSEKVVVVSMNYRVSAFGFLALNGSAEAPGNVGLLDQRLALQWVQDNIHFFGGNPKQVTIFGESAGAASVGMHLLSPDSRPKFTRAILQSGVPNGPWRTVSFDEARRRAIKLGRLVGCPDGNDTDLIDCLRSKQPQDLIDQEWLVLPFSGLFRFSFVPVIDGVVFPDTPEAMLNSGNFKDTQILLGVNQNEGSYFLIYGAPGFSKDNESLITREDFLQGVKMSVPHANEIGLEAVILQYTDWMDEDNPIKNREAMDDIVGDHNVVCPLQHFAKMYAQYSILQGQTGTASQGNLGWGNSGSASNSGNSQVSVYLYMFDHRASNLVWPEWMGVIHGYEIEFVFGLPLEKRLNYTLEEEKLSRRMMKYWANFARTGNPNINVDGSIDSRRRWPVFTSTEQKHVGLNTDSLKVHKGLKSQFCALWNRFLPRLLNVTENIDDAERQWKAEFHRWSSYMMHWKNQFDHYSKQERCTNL
# [7] = SILi: selectivity index as the ratio of cytotoxic to anti-L. infantum IC50 values, L6 IC50 / L. infantum IC50
# [8] = SITb: selectivity index as the ratio of cytotoxic to anti-T. brucei IC50 values, L6 IC50 / T. brucei IC50
# [9] = SITc: selectivity index as the ratio of cytotoxic to anti-T. cruzi IC50 values, L6 IC50 / T. cruzi IC50
# [10] = Trypanosoma brucei, pH 7.4, read-out: T. brucei IC50, bloodstream form, pH 7.4
# [11] = Trypanosoma cruzi, read-out: T. cruzi IC50, epimastigote form
# [12] = read-out: T. cruzi IC50, epimastigote form
# [13] = read-out: T. brucei IC50, bloodstream form, pH 7.4
SMILES,selectivity ratio at 6 days (in vitro; [7]),selectivity ratio at 6 days (in vitro; [8]),selectivity ratio at 6 days (in vitro; [9]),IC50 ([1]; Leishmania infantum),IC50 [1],IC50 [2],"IC50 [3, 10]",IC90 ([3]; Trypanosoma brucei),"IC50 [4, 11]","IC50 [4, 12]",Pe [5],Pe (prediction) of BBB permeation [5],IC50 [6],"IC50 [3, 13]"
"NCc1ccc(-c2nc3ccc(Cl)cc3c3c2CCCN3Cc2ccccc2)cc1 [Compound 3, 4-{1-Benzyl-9-chloro-1,2,3,4-tetrahydrobenzo[h][1,6]naphthyridin-5-yl}benzylamine]",0.2,6.8,0.7,~30 µM,31.1 ± 2.9 µM,6.78 ± 1.26 µM,1 ± 0.03 µM,1.19 ± 0.02 µM,9.47 µM,9.5 ± 2.5 µM,7.4 ± 0.2 10^−6 cm s^−1,CNS+ (compounds of high BBB permeation (CNS+): Pe (10^−6 cm s^−1) > 5.25),3670 ± 550 nM,
"N#Cc1ccc(-c2nc3ccc(Cl)cc3c3c2CCN3)cc1 [Compound 26, 4-{8-Chloro-2,3-dihydro-1H-pyrrolo[3,2-c]quinolin-4-yl}benzonitrile]",,,,> 200 µM,,,> 30 µM,> 30 µM,> 150 µM,,6.8 ± 0.3 10^−6 cm s^−1,CNS+ (compounds of high BBB permeation (CNS+): Pe (10^−6 cm s^−1) > 5.25),1190 ± 150 nM,
"N#Cc1ccc(-c2nc3ccc(Cl)cc3c3c2CCCN3)cc1 [Compound 27, 4-{9-Chloro-1,2,3,4-tetrahydrobenzo[h][1,6]naphthyridin-5-yl}benzonitrile]",2.5,6.4,0.3,15.3 ± 3.6 µM,,38.8 ± 1.7 µM,6.07 ± 0.54 µM,10.5 ± 0.2 µM,147 ± 19 µM,,14.3 ± 0.1 10^−6 cm s^−1,CNS+ (compounds of high BBB permeation (CNS+): Pe (10^−6 cm s^−1) > 5.25),1130 ± 170 nM,
"N#Cc1ccc(-c2nc3ccc(Cl)cc3c3c2CCCCN3)cc1 [Compound 28, 4-{10-Chloro-2,3,4,5-tetrahydro-1H-azepino[3,2-c]quinolin-6-yl}benzonitrile]",,,,13.7 ± 2.2 µM,,,17.3 ± 2.1 µM,28.6 ± 6.7 µM,64.6 ± 12.5 µM,,20.0 ± 1.1 10^−6 cm s^−1,CNS+ (compounds of high BBB permeation (CNS+): Pe (10^−6 cm s^−1) > 5.25),2200 ± 300 nM,
"N#Cc1ccc(-c2nc3cc(Cl)ccc3c3c2CCCN3)cc1 [Compound 29, 4-{8-Chloro-1,2,3,4-tetrahydrobenzo[h][1,6]naphthyridin-5-yl}benzonitrile]",,,,19 ± 3 µM,,,> 30 µM,> 30 µM,39.4 ± 0.2 µM,,16.2 ± 0.1 10^−6 cm s^−1,CNS+ (compounds of high BBB permeation (CNS+): Pe (10^−6 cm s^−1) > 5.25),3270 ± 430 nM,
"NCc1ccc(-c2nc3ccc(Cl)cc3c3c2CCN3)cc1 [Compound 30, 4-{8-Chloro-2,3-dihydro-1H-pyrrolo[3,2-c]quinolin-4-yl}benzylamine]",0.4,2.8,0.1,6.5 ± 1.4 µM,,2.54 ± 0.92 µM,0.92 ± 0.05 µM,1.57 ± 0.03 µM,~30 µM,37.3 ± 11 µM,7.4 ± 2.6 10^−6 cm s^−1,CNS+ (compounds of high BBB permeation (CNS+): Pe (10^−6 cm s^−1) > 5.25),870 ± 80 nM,
"NCc1ccc(-c2nc3ccc(Cl)cc3c3c2CCCN3)cc1 [Compound 31, 4-{9-Chloro-1,2,3,4-tetrahydrobenzo[h][1,6]naphthyridin-5-yl}benzylamine]",0.8,3.7,0.2,11.6 ± 2.5 µM,,8.92 ± 0.25 µM,2.44 ± 0.13 µM,3.48 ± 0.05 µM,50.5 ± 14.3 µM,,4.6 ± 0.2 10^−6 cm s^−1,,970 ± 20 nM,
"N#Cc1ccc(-c2nc3cc(Cl)ccc3cc2CCCN)cc1 [Compound 35, 4-[3-(3-Aminopropyl)-7-chloroquinolin-2-yl]benzonitrile]",1.3,4.9,0.3,~15 µM,16.2 ± 4 µM,20.4 ± 0.4 µM,~5 µM,5.61 ± 0.05 µM,78.8 ± 1.7 µM,,18.3 ± 0.6 10^−6 cm s^−1,CNS+ (compounds of high BBB permeation (CNS+): Pe (10^−6 cm s^−1) > 5.25),,4.16 ± 0.07 µM
N#Cc1ccc([C@H]2Nc3ccc(Cl)cc3[C@@H]3OCCC[C@H]23)cc1 [Compound 37],,,,> 200 µM,,,> 30 µM,> 30 µM,676 ± 37 µM,,7.0 ± 0.7 10^−6 cm s^−1,CNS+ (compounds of high BBB permeation (CNS+): Pe (10^−6 cm s^−1) > 5.25),,
"Clc1ccc2nc(-c3ccco3)c3c(c2c1)OCCC3 [Compound 42, 9-Chloro-5-(2-furyl)-3,4-dihydro-2H-pyrano[3,2-c]quinoline]",,,,38.4 ± 21.6 µM,,,21.7 ± 1.2 µM,29.3 ± 0.5 µM,76.1 ± 7.8 µM,,3.5 ± 0.4 10^−6 cm s^−1,,16300 ± 1500 nM,
"Clc1ccc2nc(-c3cccs3)c3c(c2c1)OCCC3 [Compound 43, 9-Chloro-3,4-dihydro-5-(2-thienyl)-2H-pyrano[3,2-c]quinoline]",,,,51.4 ± 2.3 µM,,,18 ± 0.4 µM,27.6 ± 1.1 µM,> 250 µM,,14.4 ± 1.6 10^−6 cm s^−1,CNS+ (compounds of high BBB permeation (CNS+): Pe (10^−6 cm s^−1) > 5.25),9390 ± 820 nM,
"OCCCc1cc2cc(Cl)ccc2nc1-c1ccco1 [Compound 44, 3-[6-chloro-2-(2-furyl)quinolin-3-yl]-1-propanol]",,,,19.3 ± 11.3 µM,,,> 25 µM,70.6 ± 1.5 µM,29.3 ± 12 µM,,10.3 ± 1.5 10^−6 cm s^−1,CNS+ (compounds of high BBB permeation (CNS+): Pe (10^−6 cm s^−1) > 5.25),,35.7 ± 1.8 µM
"OCCCc1cc2cc(Cl)ccc2nc1-c1cccs1 [Compound 45, 3-[6-chloro-2-(2-thienyl)quinolin-3-yl]-1-propanol]",,,,37.3 ± 2.3 µM,,,> 25 µM,42.9 ± 1.5 µM,51.7 ± 19.4 µM,,28.4 ± 1.2 10^−6 cm s^−1,CNS+ (compounds of high BBB permeation (CNS+): Pe (10^−6 cm s^−1) > 5.25),,28 ± 0.7 µM
"N#CCCc1cc2cc(Cl)ccc2nc1-c1cccs1 [Compound 47, 3-[6-Chloro-2-(2-thienyl)quinolin-3-yl]propanenitrile]",,,,23.3 ± 5.9 µM,,,> 25 µM,> 30 µM,51.7 ± 5.1 µM,,17.9 ± 1.1 10^−6 cm s^−1,CNS+ (compounds of high BBB permeation (CNS+): Pe (10^−6 cm s^−1) > 5.25),,> 30 µM
"CCN(CC)CCCc1cc2cc(Cl)ccc2nc1-c1cccs1 [Compound 50, N-{3-[6-Chloro-2-(2-thienyl)quinolin-3-yl]propyl}-N,N-diethylamine]",1.1,2.3,0.2,~15 µM,13.6 ± 1.5 µM,14.7 ± 2.3 µM,~5 µM,12.6 ± 0.9 µM,77.6 ± 11.2 µM,,20.9 ± 0.5 10^−6 cm s^−1,CNS+ (compounds of high BBB permeation (CNS+): Pe (10^−6 cm s^−1) > 5.25),,6.33 ± 0.94 µM
